Laboratory results reported in patent US10023602B2, “Hamamelitannin analogues and uses thereof” (Universiteit Gent, priority 2014, dated 2018).

Key:
[1] = test system: methicillin resistant S. aureus Mu50 strain (S. aureus ATCC700699) biofilm; test: Biofilm susceptibility to vancomycin, pre-treatment regimen (biofilm formed in presence of compound, then vancomycin); format: cell-based; conditions: for Pretreat (100 μM): percentage Colony Forming Units (CFU's) per biofilm: compound 100 μM during biofilm formation, then VAN 20 μg/ml, compared to the untreated (negative) control; for EC50: concentration needed to get 50% killing compared to antibiotic alone (VAN 20 μg/ml) and complete killing, read-out: Pretreat. (EC50)
Protocol: (§1) The compounds were evaluated for their effect on biofilm susceptibility both under pre-treatment and combination treatment regimens. In the pre-treatment regimen, a methicillin resistant S. aureus Mu50 strain (S. aureus ATCC700699) was allowed to form biofilms in the presence of the compounds after which the biofilm was treated with vancomycin (20 μg/ml). In the combination treatment regimen, S. aureus Mu50 was allowed to form a mature biofilm after which it was treated with a combination of a compound and vancomycin. In brief, 100 μl of a standardized inoculum (10^8 CFU/ml) was placed in the wells of a round-bottom 96-well microtiter plate. The cells were allowed to adhere to the plate in the absence (combined treatment) or presence (pre-treatment) of the compounds (0.1-250 μM) for 4 h at 37° C. After this adhesion step, non-adhered cells were removed, the wells were rinsed and fresh medium with or without the compounds was added. The plates were incubated for an additional 20 h at 37° C. After this, the medium was removed, biofilms were rinsed with physiological saline and vancomycin (20 μg/ml) was added alone (pre-treatment) or with the compounds (combined treatment, 0.1-250 μM). Plates were placed at 37° C. for 24 h after which medium was removed, wells were rinsed and the surviving cells in each condition were collected. The number of surviving cells under each condition was compared to vancomycin treatment alone and was assessed by conventional plating. The REF compound (hamamelitannin) was also observed for its effect on biofilm susceptibility towards other antibiotics (incl. vancomycin, cefoxitin, tobramycin, cefazolin, cefalonium, daptomycin, linezolide and cephalexin). Biofilms were formed as described above and were treated with the antibiotics alone or in combination with the REF compound (250 μM). The number of surviving cells under each condition was compared to the untreated control biofilm and was assessed by conventional plating.

[2] = test system: methicillin resistant S. aureus Mu50 strain (S. aureus ATCC700699) biofilm; test: Biofilm susceptibility to vancomycin, combination treatment regimen (mature biofilm treated with compound plus vancomycin); format: cell-based; conditions: for Combin. (100 μM): percentage Colony Forming Units (CFU's) per biofilm: compound 100 μM together with VAN 20 μg/ml on mature biofilm, compared to the untreated (negative) control; for EC50: concentration needed to get 50% killing compared to antibiotic alone (VAN 20 μg/ml) and complete killing, read-out: Combin. (EC50)
Protocol: as §1

| SMILES | Pretreat (100 μM): percentage Colony Forming Units (CFU's) per biofilm [1] | Combin. (100 μM): percentage Colony Forming Units (CFU's) per biofilm [2] | EC50 [1] | EC50 [2] |
| --- | --- | --- | --- | --- |
| O=C(NC[C@H]1OC[C@@](O)(CNC(=O)c2ccccc2)[C@@H]1O)c1cccc(F)c1 [compound 161, N-(((2R,3R,4S)-4-(benzamidomethyl)-3,4-dihydroxytetrahydrofuran-2-yl)methyl)-3-fluorobenzamide] | 9.353 percentage | 16.57 percentage |  |  |
| O=C(NC[C@H]1OC[C@@](O)(CNC(=O)c2ccccc2)[C@@H]1O)c1cccc(Cl)c1 [compound 162, N-(((2R,3R,4S)-4-(benzamidomethyl)-3,4-dihydroxytetrahydrofuran-2-yl)methyl)-3-chlorobenzamide] | 24.07 percentage | 29.06 percentage |  |  |
| COc1cccc(C(=O)NC[C@H]2OC[C@@](O)(CNC(=O)c3ccccc3)[C@@H]2O)c1 [compound 163, N-(((2R,3R,4S)-4-(benzamidomethyl)-3,4-dihydroxytetrahydrofuran-2-yl)methyl)-3-methoxybenzamide] | 28.44 percentage | 27.21 percentage |  |  |
| N#Cc1cccc(C(=O)NC[C@H]2OC[C@@](O)(CNC(=O)c3ccccc3)[C@@H]2O)c1 [compound 164, N-(((2R,3R,4S)-4-(benzamidomethyl)-3,4-dihydroxytetrahydrofuran-2-yl)methyl)-3-cyanobenzamide] | 22.11 percentage | 14.49 percentage |  |  |
| CN(C)c1cccc(C(=O)NC[C@H]2OC[C@@](O)(CNC(=O)c3ccccc3)[C@@H]2O)c1 [compound 165, N-(((2R,3R,4S)-4-(benzamidomethyl)-3,4-dihydroxytetrahydrofuran-2-yl)methyl)-3-(dimethylamino)benzamide] | 16.00 percentage | 26.43 percentage |  |  |
| O=C(NC[C@H]1OC[C@@](O)(CNC(=O)c2ccccc2)[C@@H]1O)c1cccc(C(F)(F)F)c1 [compound 166, N-(((2R,3R,4S)-4-(benzamidomethyl)-3,4-dihydroxytetrahydrofuran-2-yl)methyl)-3-(trifluoromethyl)benzamide] | 10.16 percentage | 12.34 percentage | 9.13 µM | 12.3 µM |
| O=C(NC[C@H]1OC[C@@](O)(CNC(=O)c2ccccc2)[C@@H]1O)c1cccnc1 [compound 167, N-(((2R,3R,4S)-4-(benzamidomethyl)-3,4-dihydroxytetrahydrofuran-2-yl)methyl)nicotinamide] | 9.813 percentage | 15.22 percentage |  |  |
| O=C(NC[C@H]1OC[C@@](O)(CNC(=O)c2ccccc2)[C@@H]1O)c1cccc(-c2ccccc2)c1 [compound 168, N-(((2R,3R,4S)-4-(benzamidomethyl)-3,4-dihydroxytetrahydrofuran-2-yl)methyl)-[1,1′-biphenyl]-3-carboxamide] | 9.830 percentage | 32.61 percentage |  |  |
| Cc1ccccc1C(=O)NC[C@H]1OC[C@@](O)(CNC(=O)c2ccccc2)[C@@H]1O [compound 169, N-(((2R,3R,4S)-4-(benzamidomethyl)-3,4-dihydroxytetrahydrofuran-2-yl)methyl)-2-methylbenzamide] | 11.68 percentage | 13.87 percentage | 13.7 µM | 52.6 µM |
| O=C(NC[C@]1(O)CO[C@H](CNC(=O)c2ccccc2F)[C@H]1O)c1ccccc1 [compound 170, N-(((2R,3R,4S)-4-(benzamidomethyl)-3,4-dihydroxytetrahydrofuran-2-yl)methyl)-2-fluorobenzamide] | 11.84 percentage | 16.30 percentage |  |  |
| O=C(NC[C@]1(O)CO[C@H](CNC(=O)c2ccccc2Cl)[C@H]1O)c1ccccc1 [compound 171, N-(((2R,3R,4S)-4-(benzamidomethyl)-3,4-dihydroxytetrahydrofuran-2-yl)methyl)-2-chlorobenzamide] | 11.56 percentage | 7.776 percentage | 0.389 µM | 7.98 µM |
| COc1ccccc1C(=O)NC[C@H]1OC[C@@](O)(CNC(=O)c2ccccc2)[C@@H]1O [compound 172, N-(((2R,3R,4S)-4-(benzamidomethyl)-3,4-dihydroxytetrahydrofuran-2-yl)methyl)-2-methoxybenzamide] | 15.37 percentage | 31.40 percentage |  |  |
| O=C(NC[C@]1(O)CO[C@H](CN2C(=O)c3ccccc3C2=O)[C@H]1O)c1ccccc1 [compound 173, N-(((3S,4R,5R)-5-((1,3-dioxoisoindolin-2-yl)methyl)-3,4-dihydroxytetrahydrofuran-3-yl)methyl)benzamide] | 11.18 percentage | 8.805 percentage | 5.01 µM | 8.3 µM |
| CN(C)c1ccccc1C(=O)NC[C@H]1OC[C@@](O)(CNC(=O)c2ccccc2)[C@@H]1O [compound 174, N-(((2R,3R,4S)-4-(benzamidomethyl)-3,4-dihydroxytetrahydrofuran-2-yl)methyl)-2-(dimethylamino)benzamide] | 28.01 percentage | 11.11 percentage |  |  |
| O=C(NC[C@]1(O)CO[C@H](CNC(=O)c2ccccc2C(F)(F)F)[C@H]1O)c1ccccc1 [compound 175, N-(((2R,3R,4S)-4-(benzamidomethyl)-3,4-dihydroxytetrahydrofuran-2-yl)methyl)-2-(trifluoromethyl)benzamide] | 22.48 percentage | 34.85 percentage |  |  |
| O=C(NC[C@]1(O)CO[C@H](CNC(=O)c2ccccn2)[C@H]1O)c1ccccc1 [compound 176, N-(((2R,3R,4S)-4-(benzamidomethyl)-3,4-dihydroxytetrahydrofuran-2-yl)methyl)picolinamide] | 21.56 percentage | 36.02 percentage |  |  |
| O=C(NC[C@]1(O)CO[C@H](CNC(=O)c2ccccc2-c2ccccc2)[C@H]1O)c1ccccc1 [compound 177, N-(((2R,3R,4S)-4-(benzamidomethyl)-3,4-dihydroxytetrahydrofuran-2-yl)methyl)-[1,1′-biphenyl]-2-carboxamide] | 15.07 percentage | 13.23 percentage |  |  |
| O=C(NC[C@]1(O)CO[C@H](CNC(=O)c2ccccc2Br)[C@H]1O)c1ccccc1 [compound 178, N-(((2R,3R,4S)-4-(benzamidomethyl)-3,4-dihydroxytetrahydrofuran-2-yl)methyl)-2-bromobenzamide] | 4.10 percentage | 17.51 percentage | 9.85 µM | 19.7 µM |
